Measured values reported in patent US10085442B2, “Agrochemical formulation” (SYNGENTA PARTICIPATIONS AG, priority 2014, dated 2018).

Test: Rainfastness of cyantraniliprole on soya leaf (Example 10)
Assay type: physicochemical, Glycine Max (Williams variety)
Conditions: rain 10 mm/hour for one hour, 0.5 g of water replaced by copolymer
Procedure: A range of substrates can be used in this test with the chosen material in this example being a soya leaf. Herein the soya, Glycine Max (Williams variety), was grown for 4 weeks in 4 inch pots with the top 2 tri-foliates used in the study. The leaves were mounted using double sided tape to flat tiles (30 cm by 30 cm) at an even spacing of 6 leaves per tile.
A deposition solution was then prepared at the concentration which would be used under commercial application conditions. In this case 0.12 g of cyantraniliprole technical was added to […] water for the control and the effect of the styrene malemide co-polymer determined by creating a similar sample with 0.5 g of the water replaced by styrene malemide co-polymer. […]
The quantities of cyantraniliprole in the acetonitrile solutions determined by mass spectrometry using a Waters Acquity UPLC and Thermo TSQ Quantum Ultra Triple Quadrupole MS Instrument or just LC/MS/MS. • Column: • Phase Ace C18 • Length (mm) 50 • Internal diameter (mm) 3.0 • Particle Size (μm) 3 • and the % active ingredient remaining after rainfall determined by dividing the quantity of cyantraniliprole on each leaf after rainfall by that before rainfall. • Cyantraniliprole: 2% cyantraniliprole remained on the leaves. • Cyantraniliprole+styrene malemide copolymer: 45% cyantraniliprole remained on the leaves.

CNC(=O)c1cc(C#N)cc(C)c1NC(=O)c1cc(Br)nn1-c1ncccc1Cl [Cyantraniliprole, cyantraniliprole]
% cyantraniliprole remained on the leaves after rainfall: 2%
